The values that follow come from ChEMBL document CHEMBL1201862, “PubChem BioAssay data set” (2004).

Each structure is given as a SMILES string.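 In this assay, cells in 96-well plates receive the compound at five concentrations for 48 hours. Endpoints are linearly interpolated between the surrounding concentrations. Here, GI50 denotes the concentration required for 50% inhibition of growth.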 Calls of active or inactive are those of the source. Cut-off read from the data, not from the text of the source: active = GI50 up to about 1.1 µM and inactive = higher. Some results are limits rather than exact numbers.

Among the test systems are 786-0; CCRF-CEM; COLO 205; HCC 2998; HCT-116; HCT-15; HT-29; KM-20L2; LOX IMVI; MOLT-4; OVCAR-3; OVCAR-5; SF-268; SK-MEL-28; SN12C; TK-10; U-251; UACC-62.
Test in all cases: growth of human tumour cells (NCI), 48 h

For the compound `c1ccc2c3nc(C4CCCC4)nc-3c(NC3CCCC3)[nH]c2c1`, the GI50 is 8.07 µM (inactive) in the experiment with 786-0; 5.89 µM (inactive) in the experiment with CCRF-CEM; 19 µM (inactive) with COLO 205; 6.76 µM (inactive) with HCC 2998; 5.66 µM (inactive) in the experiment on HCT-116; 8.49 µM with HCT-15. For the same compound, the GI50 is 4.6 µM (inactive) in the experiment with HT-29; 5 µM (inactive) in the experiment with KM-20L2; 15.8 µM (inactive) in the experiment on LOX IMVI; 6 µM (inactive) in the experiment on MOLT-4; 12.5 µM (inactive) in the experiment with OVCAR-3; 22.5 µM (inactive) in the experiment on OVCAR-5. Further, the GI50 with SF-268 was 16.9 µM (inactive); with SK-MEL-28, 13 µM (inactive); with SN12C, 32.7 µM (inactive); with TK-10 it was 35.2 µM (inactive); in the experiment with U-251 it was 3.23 µM (inactive); in the experiment on UACC-62, 14 µM (inactive).

Take `O=c1c2cc3ccccc3n2c(=O)c2cc3ccccc3n12`: the GI50 was > 100 µM (inactive) in the experiment on 786-0; > 100 µM (inactive) in the experiment with CCRF-CEM; > 100 µM (inactive) in the experiment with HCC 2998; > 100 µM (inactive) in the experiment with HCT-116; over 100 µM in the experiment on HCT-15; > 100 µM (inactive) with HT-29. For the same compound, the GI50 in the experiment on KM-20L2, with LOX IMVI, in the experiment with MOLT-4, in the experiment with OVCAR-3, with OVCAR-5 and in the experiment with SF-268 was > 100 µM (inactive) throughout. For the same compound, the GI50 in the experiment with SK-MEL-28, in the experiment with SN12C, in the experiment on TK-10, with U-251 and with UACC-62 was > 100 µM (inactive) in each case.

Regarding `O=C(CCc1nnc(S)[nH]1)NC12CC3CC(CC(C3)C1)C2`, the GI50 in the experiment on 786-0 is > 100 µM (inactive); with CCRF-CEM it was > 100 µM (inactive); in the experiment on COLO 205 it was > 100 µM (inactive); with HCC 2998, > 100 µM (inactive); in the experiment with HCT-116, > 100 µM (inactive); in the experiment with HCT-15, over 100 µM. The GI50 in the experiment on HT-29 is > 100 µM (inactive); in the experiment with KM-20L2, > 100 µM (inactive); in the experiment on LOX IMVI, > 100 µM (inactive); in the experiment with OVCAR-3, > 100 µM (inactive); with OVCAR-5 it was > 100 µM (inactive); in the experiment on SF-268, > 10 µM (inactive). In addition, the GI50 in the experiment on SK-MEL-28, in the experiment on SN12C, with TK-10, in the experiment with U-251 and in the experiment on UACC-62 was > 100 µM (inactive) throughout.

For the compound `O=CCCCC(Sc1ccccc1)Sc1ccccc1`, the GI50 with 786-0 was 19.1 µM (inactive); with CCRF-CEM, 12 µM (inactive); with COLO 205, 23.5 µM (inactive); with HCC 2998, 31 µM (inactive); with HCT-116 it was 12.4 µM (inactive); in the experiment on HCT-15, 15.7 µM. Besides, the GI50 in the experiment with KM-20L2 is 39.5 µM (inactive); in the experiment with LOX IMVI, 13.7 µM (inactive); in the experiment on MOLT-4 it was 12.5 µM (inactive); with OVCAR-3, 26.2 µM (inactive); in the experiment with SF-268, 18.4 µM (inactive); with SK-MEL-28, 15.8 µM (inactive). Also, the GI50 in the experiment with SN12C was 22 µM (inactive); in the experiment with TK-10, 32.4 µM (inactive); in the experiment with U-251 it was 15.5 µM (inactive); in the experiment on UACC-62 it was 7.67 µM (inactive).

Consider `CC1(C)OC(=O)C(=C2CCC(C(=O)Nc3cccc(C(F)(F)F)c3)N2)C(=O)O1` (centres undefined), for which the GI50 in the experiment on 786-0 was > 100 µM (inactive); in the experiment on CCRF-CEM it was 44.8 µM (inactive); in the experiment with COLO 205, > 100 µM (inactive); in the experiment with HCC 2998, 43.7 µM (inactive); with HCT-116, > 100 µM (inactive); in the experiment on HCT-15, over 100 µM. For the same compound, the GI50 was 75.7 µM (inactive) in the experiment on HT-29; 68.4 µM (inactive) in the experiment with KM-20L2; 60.4 µM (inactive) in the experiment on LOX IMVI; 26.7 µM (inactive) in the experiment with MOLT-4; 82 µM (inactive) in the experiment with OVCAR-3; > 100 µM (inactive) in the experiment with OVCAR-5. Further, the GI50 in the experiment with SF-268 is > 100 µM (inactive); with SK-MEL-28, 97.7 µM (inactive); in the experiment on SN12C, > 100 µM (inactive); in the experiment on TK-10, 86.9 µM (inactive); in the experiment on U-251 it was > 100 µM (inactive); in the experiment with UACC-62 it was 45.2 µM (inactive).

For `CCCC/C=C/C=C/C=C/CCCCCCCC(=O)OCC(COC(=O)CCCCCCC/C=C/C1C=CC(CCCC)C(C(=O)O)C1C(=O)O)OC(=O)CCCCCCC/C=C/C=C/C=C/CCCC.OCCNCO` (centres undefined), the GI50 in the experiment with 786-0 was 13.7 µM (inactive); in the experiment on CCRF-CEM it was 11.9 µM (inactive); in the experiment on COLO 205, 15.8 µM (inactive); in the experiment on HCC 2998 it was 23.4 µM (inactive); in the experiment with HCT-116, 17 µM (inactive); in the experiment on HCT-15 it was 16.2 µM. Also, the GI50 is 16.7 µM (inactive) with HT-29; 20.9 µM (inactive) with KM-20L2; 13.2 µM (inactive) in the experiment on LOX IMVI; 23.7 µM (inactive) in the experiment on MOLT-4; 17.9 µM (inactive) in the experiment with OVCAR-3; 20.2 µM (inactive) in the experiment on OVCAR-5. Further, the GI50 in the experiment on SF-268 is 17.5 µM (inactive); in the experiment on SK-MEL-28, 18.3 µM (inactive); in the experiment on SN12C, 20 µM (inactive); in the experiment with TK-10, 19.1 µM (inactive); in the experiment with UACC-62, 14.8 µM (inactive).

Regarding `COc1ccc(/C=N/N=C(\N)NO)cc1F`, the GI50 is 13.7 µM (inactive) with 786-0; 33.7 µM (inactive) in the experiment on CCRF-CEM; 10.5 µM (inactive) in the experiment with COLO 205; 11.4 µM (inactive) in the experiment with HCC 2998; 27 µM (inactive) in the experiment with HCT-116; 18.6 µM in the experiment with HCT-15. For the same compound, the GI50 is 12.9 µM (inactive) in the experiment with HT-29; 9.02 µM (inactive) with KM-20L2; 10.4 µM (inactive) with LOX IMVI; 31.1 µM (inactive) with MOLT-4; 53 µM (inactive) in the experiment with OVCAR-3; 13.9 µM (inactive) in the experiment with OVCAR-5. Moreover, the GI50 in the experiment on SF-268 was 17.1 µM (inactive); in the experiment with SK-MEL-28, > 100 µM (inactive); in the experiment with SN12C, 26.7 µM (inactive); in the experiment with TK-10 it was 43 µM (inactive); in the experiment with U-251, 25 µM (inactive); with UACC-62, 12.9 µM (inactive).

For `CS(=O)(=O)N(CCC#N)c1ccc(/C=C2\N=C(c3ccccc3Cl)OC2=O)cc1`, the GI50 was > 100 µM (inactive) in the experiment with 786-0; > 100 µM (inactive) in the experiment with CCRF-CEM; > 100 µM (inactive) with COLO 205; > 100 µM (inactive) in the experiment with HCC 2998; > 100 µM (inactive) with HCT-116; over 100 µM in the experiment with HCT-15. The GI50 with HT-29, with KM-20L2, in the experiment on LOX IMVI, with MOLT-4, in the experiment with OVCAR-3 and in the experiment on OVCAR-5 was > 100 µM (inactive) in each case. The GI50 in the experiment on SF-268, in the experiment with SK-MEL-28, in the experiment with SN12C, with TK-10, with U-251 and with UACC-62 was > 100 µM (inactive) each time.

`O=C1/C(=C/c2ccccc2Cl)COc2ccccc21`: the GI50 in the experiment on 786-0 is 15.2 µM (inactive); in the experiment on CCRF-CEM, 4.73 µM (inactive); with COLO 205, 21.7 µM (inactive); in the experiment on HCC 2998, 20.9 µM (inactive); with HCT-116, 4.75 µM (inactive); in the experiment with HT-29 it was 19 µM (inactive). The GI50 with KM-20L2 is 18.5 µM (inactive); with LOX IMVI, 15.3 µM (inactive); in the experiment with MOLT-4, 5.79 µM (inactive); in the experiment on OVCAR-3, 18.2 µM (inactive); in the experiment on OVCAR-5 it was 17.8 µM (inactive); in the experiment with SF-268, 17.5 µM (inactive). Besides, the GI50 in the experiment with SK-MEL-28 was 16.3 µM (inactive); with TK-10, 13.8 µM (inactive); in the experiment with U-251, 13.7 µM (inactive).
